According to PMC4774534 (Antiviral Research, 2015):
Counter-ions that a name gives are not always drawn. Like-named read-outs stand apart in the source and are kept apart here.

Key:
[1] = tested on: SARS-CoV S pseudotyped virus on 293T-ACE2 cells; format: cell-based; conditions: read-out: HIV-luc (SARS-CoV S) IC50
[2] = tested on: EBOV pseudotyped virus on 293T-ACE2 cells; format: cell-based; conditions: read-out: HIV-luc (EBOV GP) IC50
[3] = tested on: SARS-CoV Urbani strain in Vero 76 cells; format: cell-based; conditions: read-out: CPE inhibition IC50
[4] = tested on: SARS-CoV Toronto-2 strain in Vero 76 cells; format: cell-based; conditions: read-out: CPE inhibition IC50
[5] = tested on: SARS-CoV Urbani strain in Vero 76 cells; format: cell-based; conditions: read-out: Neutral red (NR) assay IC50
[6] = tested on: SARS-CoV Toronto-2 strain in Vero 76 cells; format: cell-based; conditions: read-out: Neutral red (NR) assay IC50
[7] = tested on: SARS-CoV Urbani strain in Vero 76 cells; format: cell-based; conditions: read-out: Virus yield reduction IC90
[8] = tested on: replication competent SARS-CoV (Urbani and Toronto-2); format: cell-based
[9] = tested on: Ebola pseudovirus on 293T-CD13 cells transiently expressing TMPRSS2; format: cell-based, EBOV
[10] = tested on: VSV-G pseudovirus on 293T-CD13 cells transiently expressing TMPRSS2; format: cell-based
[11] = tested on: SARS-CoV Toronto-2 strain in Vero 76 cells; format: cell-based; conditions: read-out: Virus yield reduction IC90

Compound	IC50 [1] [nM]	IC50 [2] [nM]	further results
CCN1CCN(C(=O)N[C@@H](Cc2ccccc2)C(=O)N[C@H](/C=C/S(=O)(=O)c2ccccc2)CCc2ccccc2)CC1 [SMDC-256122, (2S)-N-[(1E,3S)-1-(benzenesulfonyl)-5-phenylpent-1-en-3-yl]-2-{[(E)-4-ethylpiperazine-1-carbonyl]amino}-3-phenylpropanamide]	0.04 ± 0.01	0.12 ± 0.01	–
CC(C)N1CCN(C(=O)N[C@@H](Cc2ccccc2)C(=O)N[C@H](/C=C/S(=O)(=O)c2ccccc2)CCc2ccccc2)CC1 [SMDC-256123, (2S)-N-[(1E,3S)-1-(benzenesulfonyl)-5-phenylpent-1-en-3-yl]-2-{[(E)-4-(propan-2-yl)piperazine-1-carbonyl]amino}-3-phenylpropanamide]	0.11 ± 0.01	0.25 ± 0.07	–
CCCN1CCN(C(=O)N[C@@H](Cc2ccccc2)C(=O)N[C@H](/C=C/S(=O)(=O)c2ccccc2)CCc2ccccc2)CC1 [SMDC-256157, (2S)-N-[(1E,3S)-1-(benzenesulfonyl)-5-phenylpent-1-en-3-yl]-2-{[(E)-4-propylylpiperazine-1-carbonyl]amino}-3-phenylpropanamide]	0.24 ± 0.03	0.42 ± 0.03	–
O=C(N[C@H](/C=C/S(=O)(=O)c1ccccc1)CCc1ccccc1)[C@H](Cc1ccccc1)NC(=O)N1CCN(c2ccccc2)CC1 [SMDC-256158, (2S)-N-[(1E,3S)-1-(benzenesulfonyl)-5-phenylpent-1-en-3-yl]-2-{[(E)-4-phenylpiperazine-1-carbonyl]amino}-3-phenylpropanamide]	2.49 ± 0.34	2.69 ± 0.43	–
COCCN1CCN(C(=O)N[C@@H](Cc2ccccc2)C(=O)N[C@H](/C=C/S(=O)(=O)c2ccccc2)CCc2ccccc2)CC1 [SMDC-256159, (2S)-N-[(1E,3S)-1-(benzenesulfonyl)-5-phenylpent-1-en-3-yl]-2-{[(E)-4-(2-methoxyethyl)piperazine-1-carbonyl]amino}-3-phenylpropanamide]	0.07 ± 0.02	0.16 ± 0.02	IC50 [3]: 650 ± 810 nM; IC50 [4]: < 480 nM; IC50 [5]: < 2260 nM; IC50 [6]: 650 nM; IC90 [7]: 7100 ± 7600 nM; 90% reduction in viral yields, range over strains [8]: <0.48 to 7.1 µM
O=C(N[C@H](/C=C/S(=O)(=O)c1ccccc1)CCc1ccccc1)[C@H](Cc1ccccc1)NC(=O)N1CCN(C2CCCC2)CC1 [SMDC-256161, (2S)-N-[(1E,3S)-1-(benzenesulfonyl)-5-phenylpent-1-en-3-yl]-2-{[(E)-4-cyclopentylpiperazine-1-carbonyl]amino}-3-phenylpropanamide]	0.25 ± 0.16	0.18 ± 0.01	–
O=C(N[C@H](/C=C/S(=O)(=O)c1ccccc1)CCc1ccccc1)[C@H](Cc1ccccc1)NC(=O)N1CCN(CC2CC2)CC1 [SMDC-256162, (2S)-N-[(1E,3S)-1-(benzenesulfonyl)-5-phenylpent-1-en-3-yl]-2-{[(E)-4-(cyclopropylmethyl)piperazine-1-carbonyl]amino}-3-phenylpropanamide]	0.16 ± 0.03	0.1 ± 0.01	–
CN(C)C(=O)COC(=O)Cc1ccc(OC(=O)c2ccc(NC(=N)N)cc2)cc1 [camostat, camostat mesylate]	–	–	effect on Ebola pseudovirus infection [9]: no impact; effect on VSV-G driven viral entry [10]: no impact
(2S)-N-[(1E,3S)-1-(benzenesulfonyl)-5-phenylpent-1-en-3-yl]-2-{[(E)-4-tert-butylpiperazine-1-carbonyl]amino}-3-phenylpropanamide [SMDC-256160]	0.08 ± 0.01	0.11 ± 0.03	IC50 [3]: < 80 nM; IC50 [4]: < 50 nM; IC50 [5]: < 130 nM; IC50 [6]: 320 nM; IC90 [7]: 490 nM; IC90 [11]: 12200 nM; 90% reduction in viral yields, range over strains [8]: 0.49 to 12.2 µM; IC50 ([8]; read-out: IC50 values, range over strains and readouts): 50 to 320 nM
